# According to patent US20240239781A1, “1H-PYRAZOLE DERIVATIVES AS SIGMA LIGANDS” (ACONDICIONAMIENTO TARRASENSE, priority 2021, published 2024):
# Legend:
# [1] = target: T1, human σ1 receptor (Homo sapiens, UniProt Q99720); assay: Human σ1 receptor radioligand assay ([3H](+)-pentazocine, transfected HEK-293 membranes); details: class scale, read-out: Binding σ-1 Ki
# T1 construct: expressed in transfected cells; host or cells: HEK-293
# In short: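 Compounds were tested at a single 1 or 10 μM concentration (% inhibition) or at five concentrations to give Ki. They competed with 5 nM [3H](+)-pentazocine for transfected HEK-293 membranes (7 μg) in 50 mM Tris-HCl pH 8 at 37° C for 120 minutes. Nonspecific binding was set with 10 μM haloperidol, and a filtration scintillation read-out was used.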
# [2] = target: T2, human σ2/TMEM97 receptor (Homo sapiens, UniProt Q5BJF2); assay: Binding assay to human σ2/TMEM97 receptor ([3H]-DTG, transfected HEK-293 membranes); details: class scale, read-out: Binding σ-2 Ki
# T2 construct: expressed in transfected cells; host or cells: HEK-293
# In short: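 Competition against 10 nM [3H]-DTG (Tris-HCl 50 mM, pH 8.0, 25 °C, 120 min) using 15 μg transfected HEK-293 membrane protein, with 10 μM haloperidol defining NSB. Bound radioactivity counted after filtration; results as single-point % inhibition (1 or 10 μM) or five-point Ki.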
# T2 sequence (Q5BJF2 whole entry): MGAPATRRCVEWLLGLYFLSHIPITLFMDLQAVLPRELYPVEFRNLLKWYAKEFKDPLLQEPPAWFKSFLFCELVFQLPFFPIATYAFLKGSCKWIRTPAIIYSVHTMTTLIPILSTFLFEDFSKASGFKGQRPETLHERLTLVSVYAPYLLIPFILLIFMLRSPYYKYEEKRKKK
# T1 sequence (Q99720 whole entry): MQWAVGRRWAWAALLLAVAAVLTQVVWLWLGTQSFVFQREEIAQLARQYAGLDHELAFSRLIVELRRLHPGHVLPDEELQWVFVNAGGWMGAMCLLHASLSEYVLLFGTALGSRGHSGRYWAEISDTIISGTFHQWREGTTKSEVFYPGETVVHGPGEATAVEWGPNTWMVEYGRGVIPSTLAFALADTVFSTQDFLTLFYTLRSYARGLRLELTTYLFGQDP
Ki [1],Ki [2],SMILES
< 100 nM,< 100 nM,"CCn1nc(-c2cc(C(C)C)on2)c(C(=O)NC2CCN(CCC(C)(C)C)CC2)c1Cl [Example 162, 5-Chloro-N-(1-(3,3-dimethylbutyl)piperidin-4-yl)-1-ethyl-3-(5-isopropylisoxazol-3-yl)-1H-pyrazole-4-carboxamide]"
< 100 nM,< 100 nM,"CCn1nc(-c2cccc(C(F)(F)F)n2)c(CC(=O)NC2CCN(CCC(C)(C)C)CC2)c1Cl [Example 223, 2-(5-chloro-1-ethyl-3-(6-(trifluoromethyl)pyridin-2-yl)-1H-pyrazol-4-yl)-N-(1-(3,3-dimethylbutyl)piperidin-4-yl)acetamide]"
< 100 nM,< 100 nM,"Cn1nc(-c2cccc(C(F)(F)F)n2)c(C(=O)NC2CCC3(CC2)CCN(CCC(C)(C)C)CC3)c1Cl [Example 147, 5-Chloro-N-(3-(3,3-dimethylbutyl)-3-azaspiro[5.5]undecan-9-yl)-1-methyl-3-(6-(trifluoromethyl)pyridin-2-yl)-1H-pyrazole-4-carboxamide]"
100 to 500 nM,< 100 nM,"CCn1nc(-c2cc(C)on2)c(CN2CC3(CCN(CCC(C)(C)C)CC3)CC2=O)c1Cl [Example 225, 2-((5-Chloro-1-ethyl-3-(5-methylisoxazol-3-yl)-1H-pyrazol-4-yl)methyl)-8-(3,3-dimethylbutyl)-2,8-diazaspiro[4.5]decan-3-one]"
100 to 500 nM,100 to 500 nM,"Cc1cccc(-c2nn(C)c(Cl)c2CN2CC3(CCN(CCC(C)(C)C)CC3)CC2=O)n1 [Example 228, 2-((5-Chloro-1-methyl-3-(6-methylpyridin-2-yl)-1H-pyrazol-4-yl)methyl)-8-(3,3-dimethylbutyl)-2,8-diazaspiro[4.5]decan-3-one]"
< 100 nM,100 to 500 nM,"CCn1nc(-c2cc(C)on2)c(C(=O)N[C@H]2CCN(CCC(C)(C)C)C2)c1Cl [Example 164, (S)-5-Chloro-N-(1-(3,3-dimethylbutyl)pyrrolidin-3-yl)-1-ethyl-3-(5-methylisoxazol-3-yl)-1H-pyrazole-4-carboxamide]"
100 to 500 nM,< 100 nM,"CCn1nc(-c2cnn(C(C)C)c2)c(C(=O)NC2CC3(CCN(CCC(C)(C)C)CC3)C2)c1Cl [Example 149, 5-Chloro-N-(7-(3,3-dimethylbutyl)-7-azaspiro[3.5]nonan-2-yl)-1-ethyl-1′-isopropyl-1H,1′H-[3,4′-bipyrazole]-4-carboxamide]"
100 to 500 nM,< 100 nM,"CC(C)c1cc(-c2nn(C)c(Cl)c2C(=O)N2CCC3(CCN(CCC(C)(C)C)CC3)CC2)no1 [Example 177, (5-Chloro-3-(5-isopropylisoxazol-3-yl)-1-methyl-1H-pyrazol-4-yl)(9-(3,3-dimethylbutyl)-3,9-diazaspiro[5.5]undecan-3-yl)methanone]"
500 to 1000 nM,< 100 nM,"Cc1cccc(-c2nn(C)c(Cl)c2C(=O)N2CCC3(CCN(CCC(C)(C)C)CC3)CC2)n1 [Example 189, (5-Chloro-1-methyl-3-(6-methylpyridin-2-yl)-1H-pyrazol-4-yl)(9-(3,3-dimethylbutyl)-3,9-diazaspiro[5.5]undecan-3-yl)methanone]"
100 to 500 nM,< 100 nM,"CCn1nc(-c2cc(C(C)C)on2)c(C(=O)N2CCC3(CCN(CCC(C)(C)C)CC3)CC2)c1Cl [Example 192, (5-Chloro-1-ethyl-3-(5-isopropylisoxazol-3-yl)-1H-pyrazol-4-yl)(9-(3,3-dimethylbutyl)-3,9-diazaspiro[5.5]undecan-3-yl)methanone]"

# Second part, the molecule before the results:
SMILES,Ki [1],Ki [2]
"CC(C)c1cc(-c2nn(C)c(Cl)c2CN2CCCCC(NCCC(C)(C)C)C2)no1 (stereo not shown) [Example 15, 1-((5-Chloro-3-(5-isopropylisoxazol-3-yl)-1-methyl-1H-pyrazol-4-yl)methyl)-N-(3,3-dimethylbutyl)azepan-3-amine]",100 to 500 nM,> 1000 nM
"Cc1cc(-c2nn(C)c(Cl)c2CN2CCC3(CCN(Cc4ccccc4)CC3)CC2)no1 [Example 66, 3-(4-((9-Benzyl-3,9-diazaspiro[5.5]undecan-3-yl)methyl)-5-chloro-1-methyl-1H-pyrazol-3-yl)-5-methylisoxazole]",< 100 nM,< 100 nM
"Cc1cc(-c2nn(C)c(Cl)c2CN2CC[C@]3(C2)C[C@H](NCCC(C)(C)C)C3)no1 [Example 75, (2s,4r)-6-((5-Chloro-1-methyl-3-(5-methylisoxazol-3-yl)-1H-pyrazol-4-yl)methyl)-N-(3,3-dimethylbutyl)-6-azaspiro[3.4]octan-2-amine]",500 to 1000 nM,< 100 nM
"Cc1onc(-c2nn(C)c(Cl)c2CN2CCCCC(NCCC(C)C)C2)c1C (stereo not shown) [Example 37, 1-((5-Chloro-3-(4,5-dimethylisoxazol-3-yl)-1-methyl-1H-pyrazol-4-yl)methyl)-N-isopentylazepan-3-amine]",100 to 500 nM,100 to 500 nM
"Cc1cc(-c2nn(C)c(Cl)c2CN2CCC(CNCCc3ccccc3)C2)no1 (stereo not shown) [Example 45, N-((1-((5-Chloro-1-methyl-3-(5-methylisoxazol-3-yl)-1H-pyrazol-4-yl)methyl)pyrrolidin-3-yl)methyl)-2-phenylethanamine]",100 to 500 nM,100 to 500 nM
"Cc1cc(-c2nn(C)c(Cl)c2CN2CCCOC(CNCCC(C)C)C2)no1 (stereo not shown) [Example 64, N-((4-((5-Chloro-1-methyl-3-(5-methylisoxazol-3-yl)-1H-pyrazol-4-yl)methyl)-1,4-oxazepan-2-yl)methyl)-3-methylbutan-1-amine]",100 to 500 nM,100 to 500 nM
"Cc1cc(-c2nn(C)c(Cl)c2CN2CCCCC(NCC3CCOCC3)C2)no1 (stereo not shown) [Example 4, 1-((5-Chloro-1-methyl-3-(5-methylisoxazol-3-yl)-1H-pyrazol-4-yl)methyl)-N-((tetrahydro-2H-pyran-4-yl)methyl)azepan-3-amine]",> 1000 nM,500 to 1000 nM
"Cc1cc(-c2nn(C)c(Cl)c2C(=O)N2CCC3(CCN(Cc4ccc(F)c(F)c4)CC3)CC2)no1 [Example 130, (5-Chloro-1-methyl-3-(5-methylisoxazol-3-yl)-1H-pyrazol-4-yl)(9-(3,4-difluorobenzyl)-3,9-diazaspiro[5.5]undecan-3-yl)methanone]",500 to 1000 nM,100 to 500 nM
"Cc1cc(-c2nn(C)c(Cl)c2CN2CCCC[C@@H](NCCC(C)C)C2)no1 [Example 10, (R)-1-((5-Chloro-1-methyl-3-(5-methylisoxazol-3-yl)-1H-pyrazol-4-yl)methyl)-N-isopentylazepan-3-amine]",100 to 500 nM,100 to 500 nM
"CCn1cc(-c2nn(C)c(Cl)c2C(=O)NC2CCC3(CC2)CCN(CCC(C)(C)C)CC3)cn1 [Example 146, 5-Chloro-N-(3-(3,3-dimethylbutyl)-3-azaspiro[5.5]undecan-9-yl)-1′-ethyl-1-methyl-1H,1′H-[3,4′-bipyrazole]-4-carboxamide]",500 to 1000 nM,< 100 nM
"Cc1cc(-c2nn(C)c(Cl)c2CN2CCC(CNCCC(C)C)C2)no1 (stereo not shown) [Example 29, N-((1-((5-Chloro-1-methyl-3-(5-methylisoxazol-3-yl)-1H-pyrazol-4-yl)methyl)pyrrolidin-3-yl)methyl)-3-methylbutan-1-amine]",500 to 1000 nM,100 to 500 nM
"Cc1cc(-c2nn(C)c(Cl)c2C(=O)N2CCC3(CN(CCC(C)(C)C)C3)C2)no1 [Example 105, (5-Chloro-1-methyl-3-(5-methylisoxazol-3-yl)-1H-pyrazol-4-yl)(2-(3,3-dimethylbutyl)-2,6-diazaspiro[3.4]octan-6-yl)methanone]",> 1000 nM,100 to 500 nM
"Cc1conc1-c1nn(C)c(Cl)c1CN1CCCCC(NCCC(C)(C)C)C1 (stereo not shown) [Example 27, 1-((5-Chloro-1-methyl-3-(4-methylisoxazol-3-yl)-1H-pyrazol-4-yl)methyl)-N-(3,3-dimethylbutyl)azepan-3-amine]",100 to 500 nM,< 100 nM
"Cc1cc(-c2nn(C)c(Cl)c2C(=O)N2CCC[C@@H](CNCCC(C)C)C2)no1 [Example 126, (S)-(5-Chloro-1-methyl-3-(5-methylisoxazol-3-yl)-1H-pyrazol-4-yl)(3-((isopentylamino)methyl)piperidin-1-yl)methanone]",> 1000 nM,> 1000 nM
"Cc1cc(-c2nn(C)c(Cl)c2CN2CCC(CNCCC(C)C)CC2)no1 [Example 41, N-((1-((5-Chloro-1-methyl-3-(5-methylisoxazol-3-yl)-1H-pyrazol-4-yl)methyl)piperidin-4-yl)methyl)-3-methylbutan-1-amine]",100 to 500 nM,100 to 500 nM
"Cn1nc(-c2ccccn2)c(CN2CCCCC(NCCC(C)(C)C)C2)c1Cl (stereo not shown) [Example 25, 1-((5-Chloro-1-methyl-3-(pyridin-2-yl)-1H-pyrazol-4-yl)methyl)-N-(3,3-dimethylbutyl)azepan-3-amine]",< 100 nM,> 1000 nM
"Cc1cc(-c2nn(C)c(Cl)c2C(=O)N2CCCC3(CCN(Cc4ccc(F)c(F)c4)CC3)C2)no1 [Example 128, (5-Chloro-1-methyl-3-(5-methylisoxazol-3-yl)-1H-pyrazol-4-yl)(9-(3,4-difluorobenzyl)-2,9-diazaspiro[5.5]undecan-2-yl)methanone]",100 to 500 nM,< 100 nM
"Cc1cc(-c2nn(C)c(Cl)c2C(=O)N2CCCC(CNCC(C)C)C2)no1 (stereo not shown) [Example 95, (5-Chloro-1-methyl-3-(5-methylisoxazol-3-yl)-1H-pyrazol-4-yl)(3-((isobutylamino)methyl)piperidin-1-yl)methanone]",> 1000 nM,> 1000 nM
"Cc1cc(-c2nn(C)c(Cl)c2CN2CCCCC(N(C)CC3CCOCC3)C2)no1 (stereo not shown) [Example 81, 1-((5-Chloro-1-methyl-3-(5-methylisoxazol-3-yl)-1H-pyrazol-4-yl)methyl)-N-methyl-N-((tetrahydro-2H-pyran-4-yl)methyl)azepan-3-amine]",100 to 500 nM,100 to 500 nM
